# Measurements as given in patent US11203600B2 (Denali Therapeutics Inc., priority 2017, dated 2021).
# pIC50: −log10 of the molar value.
# Target: GST-hRIPK1 (8-327) (Homo sapiens (Human), UniProt Q13546)
# Assay: Fluorescent Polarization Binding (FP Binding) assay, RIPK1
# Conditions: 10 nM GST-hRIPK1 (8-327), 5 nM fluorescent-labeled ligand, RT, 30 min, mean of at least two independent experiments
# Procedure: Fluorescent Polarization Binding (FP Binding) assay (Berger S. B. et al. (2015) Cell Death Discovery, 1: 15009; Maki J. L. et al. (2012) Anal Biochem., 427(2): 164-174) was performed in polystyrene low volume 384-well black plate, at RT in a final volume of 10.1 μl/well using 10 nM of GST-hRIPK1 (8-327) enzyme and 5 nM of fluorescent-labeled ligand (14-(2-{[3-({2-{[4-(cyanomethyl)phenyl]amino]-6-[(5-cyclopropyl-1H-pyrazol-3-yl)amino]-4-pyrimidinyl}amino) propyl}amino}-2-oxoethyl)-16,16,18,18-tetramethyl-6,7,7a,8a,9,10,16,18-octahydrobenzo [2″,3″]indolizino[8″,7″:5′,6′]pyrano [3′,2′:3,4]pyrido[1,2-a]indo1-5-ium-2-sulfonate.
# Test compounds were serially diluted in DMSO at 100 fold final concentrations in the assay (1% DMSO final). In each well of a 384-well Plate were dispensed 0.1 μL of compound solution (or DMSO for controls) followed by 5 μL of GST-hRIPK1 (8-327) at twice the final concentrations in assay buffer (50 mM HEPES pH 7.5, 10 mM NaCl, 50 mM MgCl2, 0.02% CHAPS, 0.5 mM DTT and 0.01% Pluronic F127). For negative control the enzyme addition was replaced by assay buffer only.
# After addition of 5 μL of fluorescentlabeled ligand at twice the final concentrations in assay buffer, the plate was incubated at RT for […]. At the end, the binding was measured as FP value with the Envision (PerkinElmer) plate reader using filter for an excitation λ=531 nm FP and an emission λ=595 nm FP (S & P-pol). GST-hRIPK1 (8-327) enzyme was produced via Baculovirus expression.
# Test compound inhibition was expressed as percent inhibition of internal assay controls. For concentration response curves, normalized data is fit and IC50 determined using XL-fit (IDBS) for Excel. The IC50 values were averaged to determine a mean value, for a minimum of two independent experiments. Results are shown in Table 2 (RIPK1 IC50) values: +++=0.1 nM<IC50<100 nM; ++=100 nM<IC50<1 μM; +=1 μM<IC50).
# Sequence of GST-hRIPK1 (8-327) (Q13546 8-327): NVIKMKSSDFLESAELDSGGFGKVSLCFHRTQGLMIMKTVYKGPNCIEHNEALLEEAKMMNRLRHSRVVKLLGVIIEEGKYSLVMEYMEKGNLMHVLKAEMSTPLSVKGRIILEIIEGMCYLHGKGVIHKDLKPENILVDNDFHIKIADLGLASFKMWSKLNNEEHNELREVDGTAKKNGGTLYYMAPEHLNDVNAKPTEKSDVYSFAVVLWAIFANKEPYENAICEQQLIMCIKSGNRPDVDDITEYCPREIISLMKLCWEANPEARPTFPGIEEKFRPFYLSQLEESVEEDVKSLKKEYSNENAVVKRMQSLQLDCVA
row,SMILES,pIC50
1,"CCC1(C(=O)N2CCOc3c(C#N)cncc3C2)CCN(c2ncc(F)cn2)CC1 [Example 98, 4-[4-ethyl-1-(5-fluoropyrimidin-2-yl)piperidine-4-carbonyl]-3,5-dihydro-2H-pyrido[3,4-f][1,4]oxazepine-9-carbonitrile]",6.00 to 7.00
2,"CC1COc2ccccc2CN1C(=O)C(C)(C)C(F)F (centres unmarked) [Example 21, 3,3-difluoro-2,2-dimethyl-1-(3-methyl-2,3-dihydrobenzo[f][1,4]oxazepin-4(5H)-yl)propan-1-one]",7.00 to 10.00
3,"N#Cc1cncc2c1OCCN(C(=O)C1(CF)CCN(c3ncc(F)cn3)CC1)C2 [Example 137, 4-(4-(fluoromethyl)-1-(5-fluoropyrimidin-2-yl)piperidine-4-carbonyl)-2,3,4,5-tetrahydropyrido[3,4-f][1,4]oxazepine-9-carbonitrile]",6.00 to 7.00
4,"COc1ncc(F)c(N2CCC(F)(C(=O)N3CCOc4c(C#N)cncc4C3)CC2)n1 [Example 114, 4-[4-fluoro-1-(5-fluoro-2-methoxy-pyrimidin-4-yl)piperidine-4-carbonyl]-3,5-dihydro-2H-pyrido[3,4-f][1,4]oxazepine-9-carbonitrile]",7.00 to 10.00
5,"CC(C)(C(=O)N1CCOc2ccncc2C1)C(F)F [Example 35, 1-(2,3-dihydropyrido[3,4-f][1,4]oxazepin-4(5H)-yl)-3,3-difluoro-2,2-dimethylpropan-1-one]",6.00 to 7.00
6,"CC(C)(C(=O)N1CCOc2ccc(Cl)cc2C1)C(F)F [Example 10, 1-(7-chloro-2,3-dihydrobenzo[f][1,4]oxazepin-4(5H)-yl)-3,3-difluoro-2,2-dimethylpropan-1-one]",6.00 to 7.00
7,"CC(C)(C(=O)N1CCOc2c(C#N)cncc2C1)C1CC1 [Example 30, 4-(2-cyclopropyl-2-methyl-propanoyl)-3,5-dihydro-2H-pyrido[3,4-f][1,4]oxazepine-9-carbonitrile]",7.00 to 10.00
8,"CC(C)(C(=O)N1CCOc2c(Cl)cncc2C1)C(F)F [Example 61, 1-(9-chloro-3,5-dihydro-2H-pyrido[3,4-f][1,4]oxazepin-4-yl)-3,3-difluoro-2,2-dimethyl-propan-1-one]",6.00 to 7.00

# Same assay, conditions: GST-hRIPK1 (8-327), mean of at least two independent experiments
row,SMILES,pIC50
1,"Cn1nccc(N2CCC(C(=O)N3CCOc4c(C#N)cncc4C3)[C@@H](F)C2)c1=O (stereo partly drawn) [Example 224, 4-[(3,4)-trans-3-fluoro-1-(2-methyl-3-oxo-pyridazin-4-yl)piperidine-4-carbonyl]-3,5-dihydro-2H-pyrido[3,4-f][1,4]oxazepine-9-carbonitrile]",< 6.00
2,"CC(F)C(C)(C)C(=O)N1CCOc2c(C#N)cncc2C1 (single isomer, unassigned) [Example 272, 4-(3-Fluoro-2,2-dimethyl-butanoyl)-3,5-dihydro-2H-pyrido[3,4-f][1,4]oxazepine-9-carbonitrile]",7.00 to 10.00
3,"COC1CN(c2ncc(F)cn2)CCC1C(=O)N1CCOc2c(C#N)cncc2C1 (centres unmarked) [Example 309, 4-[1-(5-fluoropyrimidin-2-yl)-3-methoxy-piperidine-4-carbonyl]-3,5-dihydro-2H-pyrido[3,4-f][1,4]oxazepine-9-carbonitrile]",6.00 to 7.00
4,"CC1(C(=O)N2CCOc3c(C#N)cncc3C2)CCN(c2ncc(F)cn2)CC1F (single isomer, unassigned) [Example 299, 4-[3-Fluoro-1-(5-fluoropyrimidin-2-yl)-4-methyl-piperidine-4-carbonyl]-3,5-dihydro-2H-pyrido[3,4-f][1,4]oxazepine-9-carbonitrile]",7.00 to 10.00
5,"CC1(C(=O)N2CCOc3c(C#N)cncc3C2)CCCCO1 (centres unmarked) [Example 240, 4-(2-methyltetrahydropyran-2-carbonyl)-3,5-dihydro-2H-pyrido[3,4-f][1,4]oxazepine-9-carbonitrile]",6.00 to 7.00
6,"N#Cc1cncc2c1OCCN(C(=O)C1CCN(c3ccnc4ccnn34)CC1(F)F)C2 (centres unmarked) [Example 221, 4-(3,3-difluoro-1-pyrazolo[1,5-a]pyrimidin-7-yl-piperidine-4-carbonyl)-3,5-dihydro-2H-pyrido[3,4-f][1,4]oxazepine-9-carbonitrile]",6.00 to 7.00
